Assays:
surinam grass = test: Test B pre/postemergence surinam grass; type: in vivo, Brachiaria decumbens
How it was run: (§1)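 Test chemicals in a non-phytotoxic solvent mixture with surfactant were sprayed preemergence onto planted seeds and postemergence onto plants 2 to 18 cm tall (1- to 4-leaf stage). After twelve to sixteen days in a greenhouse, injury was visually rated against untreated controls from 0 (no effect) to 10 (complete control).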

velvetleaf = test: Test B pre/postemergence velvetleaf; type: in vivo, Abutilon theophrasti
How it was run: as §1

wild oat = test: Test B pre/postemergence wild oat; type: in vivo, Avena fatua
How it was run: as §1

smallflower flatsedge = test: Test B flood test smallflower flatsedge; type: in vivo, Cyperus difformis
How it was run: (§2)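 Flood test on plants grown to the 2-leaf stage; treated plants kept in greenhouse twelve to sixteen days, then visually rated against controls on a 0 (no effect) to 10 (complete control) scale.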

sugar beet = test: Test B pre/postemergence sugar beet; type: in vivo, Beta vulgaris
How it was run: as §1

blackgrass = test: Test B pre/postemergence blackgrass; type: in vivo, Alopecurus myosuroides
How it was run: as §1

soybean = test: Test B pre/postemergence soybean; type: in vivo, Glycine max
How it was run: as §1

duck salad = test: Test B flood test duck salad; type: in vivo, Heteranthera limosa
How it was run: as §2

rice = test: Test B flood test rice; type: in vivo, Oryza sativa
How it was run: as §2

pigweed = test: Test B pre/postemergence pigweed; type: in vivo, Amaranthus retroflexus
How it was run: as §1

corn = test: Test B pre/postemergence corn; type: in vivo, Zea mays
How it was run: as §1

purple nutsedge = test: Test B pre/postemergence purple nutsedge; type: in vivo, Cyperus rotundus
How it was run: as §1

giant foxtail = test: Test B pre/postemergence giant foxtail; type: in vivo, Setaria faberii
How it was run: as §1

bamyardgrass = test: Test B flood test barnyardgrass; type: in vivo, Echinochloa crus-galli
How it was run: as §2

morningglory = test: Test B pre/postemergence morningglory; type: in vivo, Ipomoea hederacea
How it was run: as §1

wheat = test: Test B pre/postemergence wheat; type: in vivo, Triticum aestivum
How it was run: as §1

crabgrass = test: Test B pre/postemergence crabgrass; type: in vivo, Digitaria sanguinalis
How it was run: as §1

rape = test: Test B pre/postemergence rape; type: in vivo, Brassica napus
How it was run: as §1

cocklebur = test: Test B pre/postemergence cocklebur; type: in vivo, Xanthium strumarium
How it was run: as §1

[1] = Postemergence, Rate 125 g/ha, scale of 0 to 10 where 0 is no effect and 10 is complete control
[2] = Postemergence, Rate 250 g/ha, scale of 0 to 10, 0 is no effect, 10 is complete control
[3] = Postemergence, Rate 500 g/ha, scale of 0 to 10 where 0 is no effect and 10 is complete control
[4] = Postemergence, Rate 1000 g/ha, scale 0 to 10 (0 no effect, 10 complete control)
[5] = Preemergence, Rate 125 g/ha, scale of 0 to 10 where 0 is no effect and 10 is complete control
[6] = Preemergence, Rate 250 g/ha, scale 0 to 10 (0 no effect, 10 complete control)
[7] = Preemergence, Rate 500 g/ha, scale of 0 to 10 where 0 is no effect and 10 is complete control
[8] = Rate 1000 g/ha, Preemergence, scale 0 to 10 (0 no effect, 10 complete control)
[9] = Pre-emergence, Rate 1000 g/ha, scale 0 to 10 (0 no effect, 10 complete control)
[10] = Rate 125 g/ha, under heading Pre-emergence, flood test species, visual evaluation after twelve to sixteen days
[11] = Rate 250 g/ha, Pre-emergence (flood test species), scale 0 to 10, 0 is no effect, 10 is complete control
[12] = Rate 500 g/ha, Pre-emergence section of Table B, 0 to 10 scale (0 no effect, 10 complete control)

COC(=O)C(C)n1c(=O)on(C(=O)N(c2ccc(Cl)cc2)C(C)C)c1=O (stereo not drawn) [Compound 623]
Plant response rating, B. signalgrass (surinam grass; [1]): 0 | B. signalgrass plant response rating (surinam grass; [2]): 0 | Plant response rating, B. signalgrass (surinam grass; [3]): 0 | B. signalgrass plant response rating (surinam grass; [4]): 0 | B. signalgrass plant response rating (surinam grass; [5]): 0 | Plant response rating, B. signalgrass (surinam grass; [6]): 0 | Plant response rating, B. signalgrass (surinam grass; [7]): 2 | Plant response rating, B. signalgrass (surinam grass; [8]): 4 | Plant response rating, Velvetleaf (velvetleaf; [1]): 0 | Velvetleaf plant response rating (velvetleaf; [2]): 0 | Velvetleaf plant response rating (velvetleaf; [4]): 2 | Velvetleaf plant response rating (velvetleaf; [5]): 0 | Plant response rating, Velvetleaf (velvetleaf; [6]): 0 | Plant response rating, Velvetleaf (velvetleaf; [7]): 0 | Plant response rating, Velvetleaf (velvetleaf; [8]): 0 | Plant response rating, Wild oats (wild oat; [1]): 0 | Wild oats plant response rating (wild oat; [2]): 0 | Wild oats plant response rating (wild oat; [4]): 2 | Wild oats plant response rating (wild oat; [5]): 0 | Plant response rating, Wild oats (wild oat; [6]): 0 | Plant response rating, Wild oats (wild oat; [7]): 2 | Plant response rating, Wild oats (wild oat; [8]): 2 | S. Flatsedge plant response rating (smallflower flatsedge; [9]): 0 | S. Flatsedge plant response rating (0 to 10 scale, 0 is no effect, 10 is complete control) (smallflower flatsedge; [10]): 0 | S. Flatsedge plant response rating (smallflower flatsedge; [11]): 0 | S. Flatsedge plant response rating (smallflower flatsedge; [12]): 0 | Plant response rating, Sugarbeets (sugar beet; [1]): 0 | Sugarbeets plant response rating (sugar beet; [2]): 0 | Sugarbeets plant response rating (sugar beet; [4]): 0 | Sugarbeets plant response rating (sugar beet; [5]): 0 | Plant response rating, Sugarbeets (sugar beet; [6]): 0 | Plant response rating, Sugarbeets (sugar beet; [7]): 2 | Plant response rating, Sugarbeets (sugar beet; [8]): 7 | Plant response rating, Blackgrass (blackgrass; [1]): 3 | Blackgrass plant response rating (blackgrass; [2]): 4 | Plant response rating, Blackgrass (blackgrass; [3]): 6 | Blackgrass plant response rating (blackgrass; [4]): 7 | Blackgrass plant response rating (blackgrass; [5]): 0 | Plant response rating, Blackgrass (blackgrass; [6]): 0 | Plant response rating, Blackgrass (blackgrass; [8]): 2 | Plant response rating, Soybean (soybean; [1]): 0 | Soybean plant response rating (soybean; [2]): 0 | Soybean plant response rating (soybean; [4]): 3 | Soybean plant response rating (soybean; [5]): 0 | Plant response rating, Soybean (soybean; [6]): 0 | Plant response rating, Soybean (soybean; [7]): 0 | Plant response rating, Soybean (soybean; [8]): 0 | Ducksalad plant response rating (duck salad; [9]): 0 | Ducksalad plant response rating (0 to 10 scale, 0 is no effect, 10 is complete control) (duck salad; [10]): 0 | Ducksalad plant response rating (duck salad; [11]): 0 | Ducksalad plant response rating (duck salad; [12]): 0 | Rice plant response rating (rice; [9]): 0 | Rice plant response rating (0 to 10 scale, 0 is no effect, 10 is complete control) (rice; [10]): 0 | Rice plant response rating (rice; [11]): 0 | Rice plant response rating (rice; [12]): 0 | Plant response rating, Redroot pigweed (pigweed; [1]): 0 | Redroot pigweed plant response rating (pigweed; [2]): 0 | Redroot pigweed plant response rating (pigweed; [4]): 5 | Redroot pigweed plant response rating (pigweed; [5]): 0 | Plant response rating, Redroot pigweed (pigweed; [6]): 0 | Plant response rating, Redroot pigweed (pigweed; [7]): 0 | Plant response rating, Redroot pigweed (pigweed; [8]): 5 | Plant response rating, Corn (corn; [1]): 0 | Corn plant response rating (corn; [2]): 0 | Plant response rating, Corn (corn; [3]): 0 | Corn plant response rating (corn; [4]): 0 | Corn plant response rating (corn; [5]): 0 | Plant response rating, Corn (corn; [6]): 0 | Plant response rating, Corn (corn; [7]): 0 | Plant response rating, Corn (corn; [8]): 0 | Plant response rating, Nutsedge (purple nutsedge; [1]): 0 | Nutsedge plant response rating (purple nutsedge; [2]): 0 | Nutsedge plant response rating (purple nutsedge; [5]): 0 | Plant response rating, Nutsedge (purple nutsedge; [6]): 0 | Plant response rating, Nutsedge (purple nutsedge; [7]): 0 | Plant response rating, Nutsedge (purple nutsedge; [8]): 0 | Plant response rating, Giant foxtail (giant foxtail; [1]): 0 | Giant foxtail plant response rating (giant foxtail; [2]): 0 | Plant response rating, Giant foxtail (giant foxtail; [3]): 0 | Giant foxtail plant response rating (giant foxtail; [4]): 2 | Giant foxtail plant response rating (giant foxtail; [5]): 7 | Plant response rating, Giant foxtail (giant foxtail; [6]): 8 | Plant response rating, Giant foxtail (giant foxtail; [7]): 9 | Plant response rating, Giant foxtail (giant foxtail; [8]): 9 | Barnyardgrass plant response rating (bamyardgrass; [9]): 0 | Barnyardgrass plant response rating (0 to 10 scale, 0 is no effect, 10 is complete control) (bamyardgrass; [10]): 0 | Barnyardgrass plant response rating (bamyardgrass; [11]): 0 | Barnyardgrass plant response rating (bamyardgrass; [12]): 0 | Plant response rating, Morningglory (morningglory; [1]): 6 | Morningglory plant response rating (morningglory; [2]): 8 | Plant response rating, Morningglory (morningglory; [3]): 10 | Morningglory plant response rating (morningglory; [4]): 10 | Morningglory plant response rating (morningglory; [5]): 0 | Plant response rating, Morningglory (morningglory; [6]): 0 | Plant response rating, Morningglory (morningglory; [7]): 0 | Plant response rating, Morningglory (morningglory; [8]): 0 | Plant response rating, Wheat (wheat; [1]): 0 | Wheat plant response rating (wheat; [2]): 1 | Wheat plant response rating (wheat; [4]): 1 | Wheat plant response rating (wheat; [5]): 0 | Plant response rating, Wheat (wheat; [6]): 0 | Plant response rating, Wheat (wheat; [7]): 0 | Plant response rating, Wheat (wheat; [8]): 3 | Plant response rating, Crabgrass (crabgrass; [1]): 0 | Crabgrass plant response rating (crabgrass; [2]): 0 | Plant response rating, Crabgrass (crabgrass; [3]): 0 | Crabgrass plant response rating (crabgrass; [4]): 3 | Crabgrass plant response rating (crabgrass; [5]): 0 | Plant response rating, Crabgrass (crabgrass; [6]): 0 | Plant response rating, Crabgrass (crabgrass; [8]): 0 | Plant response rating, Rape (rape; [1]): 0 | Rape plant response rating (rape; [2]): 0 | Plant response rating, Rape (rape; [3]): 0 | Rape plant response rating (rape; [4]): 0 | Rape plant response rating (rape; [5]): 0 | Plant response rating, Rape (rape; [6]): 0 | Plant response rating, Rape (rape; [7]): 2 | Plant response rating, Rape (rape; [8]): 2 | Plant response rating, Cocklebur (cocklebur; [1]): 0 | Cocklebur plant response rating (cocklebur; [2]): 0 | Plant response rating, Cocklebur (cocklebur; [3]): 0 | Cocklebur plant response rating (cocklebur; [4]): 0 | Cocklebur plant response rating (cocklebur; [5]): 0 | Plant response rating, Cocklebur (cocklebur; [6]): 0 | Plant response rating, Cocklebur (cocklebur; [7]): 0 | Plant response rating, Cocklebur (cocklebur; [8]): 0

— patent publication US6737383B1, “Herbicidal oxadiazolidines” (priority 1999, dated 2004)
